Experimental data: the kinase profiling compilation of Christmann-Franck et al. (2016)

Tests used:
Assay in all cases: KINOMEscan competition binding
Conditions in all cases: compound 10.0 µM
RAF1 (human) = RAF1 (human) (UniProt P04049)
STK36 (human) = STK36 (human) (UniProt Q9NRP7)
NEK11 (human) = NEK11 (human) (UniProt Q8NG66)
NEK9 (human) = NEK9 (human) (UniProt Q8TD19)
EPHB1 (human) = EPHB1 (human) (UniProt P54762)
AKT1 (human) = AKT1 (human) (UniProt P31749)
AAK1 (human) = AAK1 (human) (UniProt Q2M2I8)
RIOK1 (human) = RIOK1 (human) (UniProt Q9BRS2)
TEC (human) = TEC (human) (UniProt P42680)
HUNK (human) = HUNK (human) (UniProt P57058)
PRKCE (human) = PRKCE (human) (UniProt Q02156)
PTK2B (human) = PTK2B (human) (UniProt Q14289)
CDK2 (human) = CDK2 (human) (UniProt P24941)
PRKD2 (human) = PRKD2 (human) (UniProt Q9BZL6)
CDK19 (human) = CDK19 (human) (UniProt Q9BWU1)
PRKCD (human) = PRKCD (human) (UniProt Q05655)
BMPR2 (human) = BMPR2 (human) (UniProt Q13873)
TRPM6 (human) = TRPM6 (human) (UniProt Q9BX84)
ULK1 (human) = ULK1 (human) (UniProt O75385)
CSNK1G2 (human) = CSNK1G2 (human) (UniProt P78368)
MYLK4 (human) = MYLK4 (human) (UniProt Q86YV6)
IKBKE (human) = IKBKE (human) (UniProt Q14164)
PRKD1 (human) = PRKD1 (human) (UniProt Q15139)
MAP3K15 (human) = MAP3K15 (human) (UniProt Q6ZN16)
MARK4 (human) = MARK4 (human) (UniProt Q96L34)
DYRK2 (human) = DYRK2 (human) (UniProt Q92630)
CDK5 (human) = CDK5 (human) (UniProt Q00535)
PI4KB (human) = PI4KB (human) (UniProt Q9UBF8)
PIK3CB (human) = PIK3CB (human) (UniProt P42338)
CDK8 (human) = CDK8 (human) (UniProt P49336)
MAPK3 (human) = MAPK3 (human) (UniProt P27361)
[1] = system: ABL1 (human), P00519 [Y253F]
CDK9 (human) = CDK9 (human) (UniProt P50750)
PRKG2 (human) = PRKG2 (human) (UniProt Q13237)
CAMK2D (human) = CAMK2D (human) (UniProt Q13557)
CLK2 (human) = CLK2 (human) (UniProt P49760)
MST1R (human) = MST1R (human) (UniProt Q04912)
GSK3B (human) = GSK3B (human) (UniProt P49841)
IGF1R (human) = IGF1R (human) (UniProt P08069)
MAP3K12 (human) = MAP3K12 (human) (UniProt Q12852)

Chain of MYLK4 (human) (Q86YV6 whole entry, looked up): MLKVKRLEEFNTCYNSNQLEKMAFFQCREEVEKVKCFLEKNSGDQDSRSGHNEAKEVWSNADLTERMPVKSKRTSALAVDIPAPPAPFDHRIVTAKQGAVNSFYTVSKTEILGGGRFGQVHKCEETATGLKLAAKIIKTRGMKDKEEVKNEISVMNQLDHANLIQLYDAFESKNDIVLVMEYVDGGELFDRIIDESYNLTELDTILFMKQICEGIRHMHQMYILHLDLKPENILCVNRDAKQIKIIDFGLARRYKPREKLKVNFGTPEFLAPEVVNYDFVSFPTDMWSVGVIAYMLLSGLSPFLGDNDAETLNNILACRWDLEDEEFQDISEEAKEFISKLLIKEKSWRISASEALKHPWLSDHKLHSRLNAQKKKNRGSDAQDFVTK
Chain of CSNK1G2 (human) (P78368 whole entry, looked up): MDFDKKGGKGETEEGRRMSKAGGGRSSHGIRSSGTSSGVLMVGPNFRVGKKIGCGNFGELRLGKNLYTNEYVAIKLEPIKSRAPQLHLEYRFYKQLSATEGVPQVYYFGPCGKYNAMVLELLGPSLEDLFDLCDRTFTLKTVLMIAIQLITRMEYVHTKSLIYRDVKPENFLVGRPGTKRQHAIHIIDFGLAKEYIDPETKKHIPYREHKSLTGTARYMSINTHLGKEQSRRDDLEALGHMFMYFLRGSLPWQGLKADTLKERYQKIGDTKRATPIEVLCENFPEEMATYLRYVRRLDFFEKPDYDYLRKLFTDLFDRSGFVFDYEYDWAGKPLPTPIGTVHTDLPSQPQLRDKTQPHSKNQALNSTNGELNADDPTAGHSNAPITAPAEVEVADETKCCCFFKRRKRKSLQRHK
Chain of PRKD2 (human) (Q9BZL6 whole entry, looked up): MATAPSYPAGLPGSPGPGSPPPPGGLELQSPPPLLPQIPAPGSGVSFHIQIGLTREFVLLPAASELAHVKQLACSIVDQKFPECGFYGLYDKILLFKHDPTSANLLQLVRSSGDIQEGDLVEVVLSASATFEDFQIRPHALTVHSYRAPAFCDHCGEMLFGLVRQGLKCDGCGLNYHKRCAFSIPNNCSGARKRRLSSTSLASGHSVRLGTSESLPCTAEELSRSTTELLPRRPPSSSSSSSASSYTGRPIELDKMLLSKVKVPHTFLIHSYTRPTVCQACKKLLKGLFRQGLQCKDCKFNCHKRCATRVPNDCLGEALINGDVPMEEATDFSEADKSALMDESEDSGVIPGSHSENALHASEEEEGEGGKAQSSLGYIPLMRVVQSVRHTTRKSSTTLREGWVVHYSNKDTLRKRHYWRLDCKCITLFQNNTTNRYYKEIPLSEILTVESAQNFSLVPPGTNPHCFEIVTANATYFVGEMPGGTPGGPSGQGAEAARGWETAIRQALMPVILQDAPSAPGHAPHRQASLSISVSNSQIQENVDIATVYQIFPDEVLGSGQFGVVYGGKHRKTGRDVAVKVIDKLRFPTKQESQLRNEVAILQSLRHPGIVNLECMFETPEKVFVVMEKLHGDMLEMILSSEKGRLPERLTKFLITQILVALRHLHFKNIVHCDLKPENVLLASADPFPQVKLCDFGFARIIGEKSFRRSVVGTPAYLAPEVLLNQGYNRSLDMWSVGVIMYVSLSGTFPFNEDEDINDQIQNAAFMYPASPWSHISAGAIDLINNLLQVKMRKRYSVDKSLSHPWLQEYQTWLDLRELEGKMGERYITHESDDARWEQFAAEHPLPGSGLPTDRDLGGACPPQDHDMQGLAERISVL
Chain of RIOK1 (human) (Q9BRS2 whole entry, looked up): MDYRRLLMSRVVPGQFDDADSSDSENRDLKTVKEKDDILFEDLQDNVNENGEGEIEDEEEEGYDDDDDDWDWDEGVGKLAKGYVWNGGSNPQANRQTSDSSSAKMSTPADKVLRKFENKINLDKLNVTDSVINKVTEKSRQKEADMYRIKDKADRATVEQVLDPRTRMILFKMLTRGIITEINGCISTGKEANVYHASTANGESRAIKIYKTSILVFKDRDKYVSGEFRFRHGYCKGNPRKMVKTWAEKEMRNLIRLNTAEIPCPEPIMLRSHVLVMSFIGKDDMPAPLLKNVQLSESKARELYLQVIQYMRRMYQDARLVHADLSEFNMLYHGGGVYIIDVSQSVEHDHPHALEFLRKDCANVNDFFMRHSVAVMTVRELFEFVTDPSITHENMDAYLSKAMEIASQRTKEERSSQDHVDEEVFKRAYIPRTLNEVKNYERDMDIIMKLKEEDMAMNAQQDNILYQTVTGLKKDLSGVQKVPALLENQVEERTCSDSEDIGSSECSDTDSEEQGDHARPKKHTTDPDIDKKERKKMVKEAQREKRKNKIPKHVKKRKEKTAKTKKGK
Chain of PRKD1 (human) (Q15139 whole entry, looked up): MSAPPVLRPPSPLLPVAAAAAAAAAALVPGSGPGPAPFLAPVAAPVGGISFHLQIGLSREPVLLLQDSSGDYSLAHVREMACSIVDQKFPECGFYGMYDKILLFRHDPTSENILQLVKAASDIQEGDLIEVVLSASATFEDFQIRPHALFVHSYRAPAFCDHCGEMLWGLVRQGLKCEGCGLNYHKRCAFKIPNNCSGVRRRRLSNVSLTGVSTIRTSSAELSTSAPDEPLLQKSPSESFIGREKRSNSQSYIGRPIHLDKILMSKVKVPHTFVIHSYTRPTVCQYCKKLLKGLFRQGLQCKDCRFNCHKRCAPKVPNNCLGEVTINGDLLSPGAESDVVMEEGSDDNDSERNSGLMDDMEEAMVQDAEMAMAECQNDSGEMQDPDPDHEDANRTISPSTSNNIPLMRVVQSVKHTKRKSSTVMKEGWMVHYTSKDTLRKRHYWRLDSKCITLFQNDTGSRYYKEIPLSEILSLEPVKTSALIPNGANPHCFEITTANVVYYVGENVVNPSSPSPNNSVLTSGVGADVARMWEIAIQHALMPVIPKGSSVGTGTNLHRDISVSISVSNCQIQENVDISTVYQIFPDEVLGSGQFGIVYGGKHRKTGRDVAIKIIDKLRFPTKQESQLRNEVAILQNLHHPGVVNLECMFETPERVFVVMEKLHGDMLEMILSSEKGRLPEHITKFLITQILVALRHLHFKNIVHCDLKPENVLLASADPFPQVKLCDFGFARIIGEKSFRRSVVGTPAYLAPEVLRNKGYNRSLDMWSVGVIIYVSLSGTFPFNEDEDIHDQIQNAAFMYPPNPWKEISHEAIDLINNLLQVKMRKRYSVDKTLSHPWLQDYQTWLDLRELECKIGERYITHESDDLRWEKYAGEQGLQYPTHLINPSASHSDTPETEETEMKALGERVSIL
Chain of PRKCD (human) (Q05655 whole entry, looked up): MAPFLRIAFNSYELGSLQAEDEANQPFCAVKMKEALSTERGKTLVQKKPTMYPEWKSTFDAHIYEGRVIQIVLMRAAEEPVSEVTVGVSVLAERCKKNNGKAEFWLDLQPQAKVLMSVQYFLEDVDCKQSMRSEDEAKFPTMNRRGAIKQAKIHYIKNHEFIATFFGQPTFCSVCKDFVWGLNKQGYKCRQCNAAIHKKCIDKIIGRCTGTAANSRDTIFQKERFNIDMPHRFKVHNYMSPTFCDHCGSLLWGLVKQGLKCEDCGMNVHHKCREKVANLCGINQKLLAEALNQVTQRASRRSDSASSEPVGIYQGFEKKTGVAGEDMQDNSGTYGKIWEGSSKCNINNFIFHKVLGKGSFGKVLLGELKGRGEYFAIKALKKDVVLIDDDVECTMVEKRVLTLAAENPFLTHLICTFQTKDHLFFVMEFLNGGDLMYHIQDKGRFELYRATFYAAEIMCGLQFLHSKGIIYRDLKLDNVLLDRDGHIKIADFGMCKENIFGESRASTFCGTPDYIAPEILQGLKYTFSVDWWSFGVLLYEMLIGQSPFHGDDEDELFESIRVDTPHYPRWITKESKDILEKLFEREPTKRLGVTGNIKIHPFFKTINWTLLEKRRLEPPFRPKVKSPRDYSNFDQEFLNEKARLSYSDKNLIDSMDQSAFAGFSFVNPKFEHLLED
Chain of PRKCE (human) (Q02156 whole entry, looked up): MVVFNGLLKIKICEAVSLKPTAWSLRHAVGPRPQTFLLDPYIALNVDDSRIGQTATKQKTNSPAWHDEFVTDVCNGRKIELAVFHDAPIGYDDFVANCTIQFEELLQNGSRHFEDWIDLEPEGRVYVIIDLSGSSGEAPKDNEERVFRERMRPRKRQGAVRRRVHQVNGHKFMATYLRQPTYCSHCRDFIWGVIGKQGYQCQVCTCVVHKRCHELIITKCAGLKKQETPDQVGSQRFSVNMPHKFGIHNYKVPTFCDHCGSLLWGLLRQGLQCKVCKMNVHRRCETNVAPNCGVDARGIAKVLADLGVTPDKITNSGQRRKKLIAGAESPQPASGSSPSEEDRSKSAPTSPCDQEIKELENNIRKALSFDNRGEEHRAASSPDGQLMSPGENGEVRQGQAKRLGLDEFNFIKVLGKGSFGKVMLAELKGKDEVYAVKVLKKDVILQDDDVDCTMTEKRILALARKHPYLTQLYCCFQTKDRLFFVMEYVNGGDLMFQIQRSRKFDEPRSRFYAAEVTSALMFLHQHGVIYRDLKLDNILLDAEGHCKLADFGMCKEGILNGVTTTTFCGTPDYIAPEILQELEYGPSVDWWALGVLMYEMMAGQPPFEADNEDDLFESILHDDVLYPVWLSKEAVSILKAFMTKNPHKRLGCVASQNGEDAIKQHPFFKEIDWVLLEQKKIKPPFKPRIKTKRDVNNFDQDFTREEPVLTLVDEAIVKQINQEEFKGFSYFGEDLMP
Chain of CDK5 (human) (Q00535 whole entry, looked up): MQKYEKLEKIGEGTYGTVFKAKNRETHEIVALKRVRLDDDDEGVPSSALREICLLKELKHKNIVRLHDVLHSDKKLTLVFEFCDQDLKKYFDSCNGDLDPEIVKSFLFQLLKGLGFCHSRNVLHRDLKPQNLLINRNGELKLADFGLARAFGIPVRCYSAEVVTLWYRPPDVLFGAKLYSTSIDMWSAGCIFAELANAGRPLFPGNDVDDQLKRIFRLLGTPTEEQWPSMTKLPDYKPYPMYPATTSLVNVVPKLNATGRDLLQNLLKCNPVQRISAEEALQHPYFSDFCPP

How did the kinase still bound, per cent of control (RAF1 (human)) turn out when `COc1ccc(N(C(=O)Oc2c(C)cccc2C)c2ccnc(Nc3ccc(N4CCN(C)CC4)cc3)n2)c(OC)c1` was run?
The kinase still bound, per cent of control was 95%.

What about the kinase still bound, per cent of control (STK36 (human)) of the same compound?
The kinase still bound, per cent of control was 0.95%.

What about the kinase still bound, per cent of control (NEK11 (human)) of the same compound?
Its kinase still bound, per cent of control is 100%.

What about the kinase still bound, per cent of control (NEK9 (human)) of the same compound?
Its kinase still bound, per cent of control is 100%.

And the kinase still bound, per cent of control (EPHB1 (human))?
The kinase still bound, per cent of control was 0%.

And the kinase still bound, per cent of control (AKT1 (human))?
The kinase still bound, per cent of control was 100%.

And the kinase still bound, per cent of control (AAK1 (human))?
Its kinase still bound, per cent of control is 13%.

And the kinase still bound, per cent of control (RIOK1 (human))?
Its kinase still bound, per cent of control is 5.8%.

And the kinase still bound, per cent of control (TEC (human))?
The kinase still bound, per cent of control was 3.7%.

And the kinase still bound, per cent of control (HUNK (human))?
The kinase still bound, per cent of control was 9%.

And the kinase still bound, per cent of control (PRKCE (human))?
The kinase still bound, per cent of control was 27%.

What about the kinase still bound, per cent of control (PTK2B (human)) of the same compound?
The kinase still bound, per cent of control was 9%.

What about the kinase still bound, per cent of control (CDK2 (human)) of the same compound?
Its kinase still bound, per cent of control is 65%.

What about the kinase still bound, per cent of control (PRKD2 (human)) of the same compound?
The kinase still bound, per cent of control was 6.4%.

What about the kinase still bound, per cent of control (CDK19 (human)) of the same compound?
Its kinase still bound, per cent of control is 100%.

And the kinase still bound, per cent of control (PRKCD (human))?
The kinase still bound, per cent of control was 9.8%.

And the kinase still bound, per cent of control (BMPR2 (human))?
Its kinase still bound, per cent of control is 0.2%.

What about the kinase still bound, per cent of control (TRPM6 (human)) of the same compound?
The kinase still bound, per cent of control was 100%.

What about the kinase still bound, per cent of control (ULK1 (human)) of the same compound?
The kinase still bound, per cent of control was 31%.

And the kinase still bound, per cent of control (CSNK1G2 (human))?
Its kinase still bound, per cent of control is 33%.

And the kinase still bound, per cent of control (MYLK4 (human))?
Its kinase still bound, per cent of control is 100%.

What about the kinase still bound, per cent of control (IKBKE (human)) of the same compound?
Its kinase still bound, per cent of control is 78%.

And the kinase still bound, per cent of control (PRKD1 (human))?
Its kinase still bound, per cent of control is 9.3%.

What about the kinase still bound, per cent of control (MAP3K15 (human)) of the same compound?
Its kinase still bound, per cent of control is 83%.

What about the kinase still bound, per cent of control (MARK4 (human)) of the same compound?
The kinase still bound, per cent of control was 49%.

What about the kinase still bound, per cent of control (DYRK2 (human)) of the same compound?
The kinase still bound, per cent of control was 80%.

And the kinase still bound, per cent of control (CDK5 (human))?
The kinase still bound, per cent of control was 98%.

And the kinase still bound, per cent of control (PI4KB (human))?
The kinase still bound, per cent of control was 100%.

What about the kinase still bound, per cent of control (PIK3CB (human)) of the same compound?
Its kinase still bound, per cent of control is 100%.

And the kinase still bound, per cent of control (CDK8 (human))?
Its kinase still bound, per cent of control is 100%.

What about the kinase still bound, per cent of control (MAPK3 (human)) of the same compound?
The kinase still bound, per cent of control was 100%.

What about the kinase still bound, per cent of control [1] of the same compound?
Its kinase still bound, per cent of control is 0.1%.

And the kinase still bound, per cent of control (CDK9 (human))?
Its kinase still bound, per cent of control is 33%.

And the kinase still bound, per cent of control (PRKG2 (human))?
Its kinase still bound, per cent of control is 92%.

And the kinase still bound, per cent of control (CAMK2D (human))?
The kinase still bound, per cent of control was 100%.

And the kinase still bound, per cent of control (CLK2 (human))?
Its kinase still bound, per cent of control is 78%.

What about the kinase still bound, per cent of control (MST1R (human)) of the same compound?
Its kinase still bound, per cent of control is 16%.

What about the kinase still bound, per cent of control (GSK3B (human)) of the same compound?
The kinase still bound, per cent of control was 72%.

And the kinase still bound, per cent of control (IGF1R (human))?
The kinase still bound, per cent of control was 100%.

What about the kinase still bound, per cent of control (MAP3K12 (human)) of the same compound?
Its kinase still bound, per cent of control is 73%.
